Experiments:
[1] = tested on: human peripheral blood mononuclear cells (PBMC); experiment: Cell viability controls of human PBMC (MTT assay); type: cell-based; settings: Example 3, HTB 1-3 mM with LPS, 3 mM without LPS
Method: Prior to the various treatments, cell viability was determined by the Trypan Blue exclusion assay. Cells were diluted at a concentration of 2.5 million/ml with RPMI medium containing 10% fetal calf serum and were incubated (37° C., 5% CO2) 1 hour in 6-well plates (2 ml/well, 5 million PBMC) without adding any drug (control) or adding HTB (1-3 mM). Next, cells were incubated for further 10 minutes in the presence of 10 μg/ml E.coli lipopolysaccharide (LPS, 026:B6 serotype; Sigma). After incubation, a sample (100 μl) was taken in order to carry out a cell count as well as cell viability controls by measuring the ability of mitochondrial dehydrogenases to convert the soluble tetrazolium salt, MTT the insoluble product formazan (MTT assay). Cells were also incubated with HTB (3 mM) in the absence of LPS. In all cases, cell viability was equal to or higher than 95%.
Cells were diluted at a concentration of 2.5 million/ml with RPMI medium containing 10% fetal calf serum and were incubated (37° C., 5% CO2) 19 hours in 6-well plates (2 ml/well, 5 million PBMC). Incubations were carried out in the presence of 10 μg/ml E.coli lipopolysaccharide (LPS, 026:B6 serotype; Sigma) without adding any drug (control) or adding Triflusal or HTB (0.1-5 mM). Prior to incubations, cell viability controls were performed using the Trypan Blue exclusion assay. […]

[2] = tested on: iNOS; experiment: iNOS expression measured as nitrite production induced by immune complexes in rat peritoneal macrophages; type: cell-based; settings: Peritoneal macrophage, 100 μg/ml IgG/ovalbumin, nitrite after 24 hours, mean ± SEM, read-out: IC50, production of nitrite (NO) induced by immune complexes
Method: Rat peritoneal cells were obtained and resuspended in DMEM culture medium in the absence of serum and supplemented with antibiotics. Macrophages were isolated by their ability to adhere to culture plates following incubation for 2 hours at 37° C. Non-adherent cells were removed and it was then checked that more than 95% of the adherent cells were macrophages, as assessed by their ability to engulf zymosan particles and nonspecific esterase staining. Culture plates were kept at 37° C. under a 5% CO2 atmosphere, and the peritoneal macrophages adhered to the plates were incubated with 100 μg/ml IgG/ovalbumin immune complexes in the presence or absence (Control) of triflusal or HTB (0.1-20 mM, both). Drugs were added 10 minutes before the addition of IgG/ovalbumin and the production of NO was determined as the nitrite present after 24 hours.
iNOS expression was indirectly measured as the production of NO. NO released from macrophage cultures was determined indirectly by the accumulation of nitrites. […] 50 μl naphthylenediamine (1 mM final concentration) were added and after 15 minutes of incubation the absorbance of the sample was measured at 548 nm and was compared with a NaNO2 standard. The production of NO was expressed as nmol NO2^−/mg protein.

[3] = Cell viability of U-937 cells (EZ4U); type: cell-based; settings: human, U-937 histiocytic lymphoma cells, read-out: Percentage of cell viability
Method: (§1) Several cell lines obtained from the American Type Culture Collection (ATCC) were cultured at 37° C. and under a 5% CO2 atmosphere. Each cell line was grown in an appropriate culture medium and within the exponential phase (Table I).
(§2) For the cell viability studies 24-well plates were used, where 0.5×10^6 cells/ml (for 24-hour studies), 0.25×10^6 cells/ml (for 48-hour studies) or 0.125×10^6 cells/ml (for 72-hour studies) were incubated. Next, different concentrations of HTB (1-3 mM) were added and cells were incubated for different time periods (37° C., 5% CO2). After incubation, the supernatant from each well was extracted, and cells were washed with culture medium without fetal calf serum. Then, the supernatant was extracted and 200 μl culture medium without fetal calf serum were added to each well. In addition, 20 μl substrate were added to determine cell viability. This method is based on the ability of viable cells to transform the colourless substrate into a coloured substance that is excreted to the supernatant (EZ4U, Biomedica Gmbh.). After incubating cells for 1 hour at 37° C. and 5% CO2, 200 μl supernatant were collected and the absorbance was measured at 450 nm.
(§3) The absorbance was also determined at 620 nm as a measure of the existing non-specific value.

[4] = Cell viability of COLO 205 cells (EZ4U); type: cell-based; settings: human, COLO 205 cells (colon adenocarcinoma), read-out: Percentage of cell viability
Method: as §1, §2, §3

[5] = tested on: COX-2; experiment: COX-2 expression in rat inflammatory exudate cells (carrageenan air pouch); type: in vivo; settings: oral 3-30 mg/kg, 6 h
Method: Lewis rats (175-200 g) were used in this study. Rats were randomly distributed in groups of 5 animals. An, air pouch was produced by subcutaneous injection of 20 ml of sterile air into the intrascapular area of animals in each group. Every two days, 10 ml of air were injected again into the cavity to keep the space open. Seven days after the first injection of air, 2 ml of a 1% carrageenan solution was injected into the air pouch in all groups to produce an inflammatory reaction. Test compound was administered orally 30 min before carrageenan administration. The animals were killed 6 h later and the volume of exudate was measured. The type and number of cells present were determined using standard Wright-Giemsa staining and a Coulter Counter cell counter, respectively. The exudate was centrifuged at 400 g at 4° C. for 7 min and PGE2 concentration was determined by enzyme-immunoassay (Amershan-Biotrak RPN222). The cell pellet was resuspended in 2 ml cold 0.85% NaCl. To eliminate red cell contamination, cells were subjected to a selective cellular lysis by the addition of 6 ml cold water for 20 seconds. The isotonicity of the cellular suspension was restored by the addition of 2 ml 3.5% NaCl. […]

O=C(O)c1ccc(C(F)(F)F)cc1O [HTB, 2-hydroxy-4-trifluoromethylbenzoic acid]
cell viability [1]: ≥ 95%
IC50 [2]: 1840 ± 340 µM
viability at 0 h, 1 mM ([3]; 1 mM HTB, 0 hours): 100%
viability at 2 h, 1 mM ([3]; 1 mM HTB, 2 hours): 100%
viability at 5 h, 1 mM ([3]; 1 mM HTB, 5 hours): 98.8%
viability at 24 h, 1 mM ([3]; 1 mM HTB, 24 hours): 74.4%
viability at 48 h, 1 mM ([3]; 1 mM HTB, 48 hours): 39.6%
viability at 72 h, 1 mM ([3]; 1 mM HTB, 72 hours): 4.8%
viability at 0 h, 3 mM ([3]; 3 mM HTB, 0 hours): 100%
viability at 2 h, 3 mM ([3]; 3 mM HTB, 2 hours): 96.1%
viability at 5 h, 3 mM ([3]; 3 mM HTB, 5 hours): 92.6%
viability at 24 h, 3 mM ([3]; 3 mM HTB, 24 hours): 13.9%
viability at 48 h, 3 mM ([3]; 3 mM HTB, 48 hours): 7.5%
viability at 0 h, 1 mM ([4]; 1 mM HTB, 0 hours): 100%
viability at 2 h, 1 mM ([4]; 1 mM HTB, 2 hours): 100%
viability at 5 h, 1 mM ([4]; 1 mM HTB, 5 hours): 87.2%
viability at 24 h, 1 mM ([4]; 1 mM HTB, 24 hours): 64.8%
viability at 48 h, 1 mM ([4]; 1 mM HTB, 48 hours): 37.4%
viability at 72 h, 1 mM ([4]; 1 mM HTB, 72 hours): 7.6%
viability at 0 h, 3 mM ([4]; 3 mM HTB, 0 hours): 100%
viability at 2 h, 3 mM ([4]; 3 mM HTB, 2 hours): 94.5%
viability at 5 h, 3 mM ([4]; 3 mM HTB, 5 hours): 69.2%
viability at 24 h, 3 mM ([4]; 3 mM HTB, 24 hours): 39.6%
viability at 48 h, 3 mM ([4]; 3 mM HTB, 48 hours): 14.3%

CC(=O)Oc1cc(C(F)(F)F)ccc1C(=O)O [triflusal, 2-Acetyloxy-4-trifluoromethylbenzoic acid, reference compound]
IC50 [2]: 1130 ± 120 µM
inhibition of COX-2 expression in the cells present in the exudate [5]: dose-dependently inhibits

Reference: patent US6509377B1, “Use of a 2-hydroxy-4-trifluoromethylbenzoic acid derivatives as inhibitors of the activation of the nuclear transcription factor NF-κB” (J. Uriach & Cia, S.A., priority 1999, dated 2003)
